Results published in patent US20220257665A1, “APPLICATION OF […] AGENTS TO STEM CELL DERIVED CARDIOMYOCYTES AND USES THEREOF” (priority 2019, published 2022).

Key:
[1] = test system: human induced pluripotent stem cell derived cardiomyocytes (iCell2 cardiomyocytes); experiment: Ca2+-recordings, beat-to-beat variability (CV), single agents; type: cell-based; conditions: 24 h after withdrawal
Text: In order to determine the lasting impact on the electrophysiological properties of the stem-cell derived cardiomyocytes following exposure to anti-arrhythmic agents, we conducted functional cardiomyocyte testing by means of Ca^2+-recordings and determined the arrhythmogenic potential of the stem-cell derived cardiomyocyte population after exposure to the anti-arrhythmic agents. […] (Kazuto Yamazaki et al, Beat-to-Beat Variability in Field Potential Duration in Human Embryonic Stem Cell-Derived Cardiomyocyte Clusters for Assessment of_Arrhythmogenic Risk, and a Case Study of Its Application, Pharmacology & Pharmacy, Vol. 5 No. 1, 2014, pp. 117-128). Of note, all Ca^2+-recordings were conducted at least 24 h after exposure to exclude the known direct effects of the agents via ion channel modulation. […] The cells were delivered as frozen vials and stored until use in liquid nitrogen. All culturing media necessary for thawing and culturing was supplied by the cell supplier. Thawing, plating and cultivation procedures were followed according to the protocol supplied by the manufacturer. Cells were plated directly onto the 384-well Greiner μClear plates coated with fibronectin. […] Media was changed (90%) one day after plating and then every second day and 3 hours before the experiments for the pilot study. […] Treatment was ended by exchanging medium to standard cultivation medium on DIV 6. Recording took place at DIV 7. Experiments were performed at a minimum of n=10 for each compound concentration. For Ca^2+ imaging experiments media was exchanged for the recordings by a HEPES buffered recording solution. A fluorescent Ca^2+ indicator (Cal-520-AM) was applied at a concentration of 2 μM and allowed to accumulate in the cells for 30 min before the buffer was exchanged again to dye-free buffer. Cells were allowed to recover for 10 min at 37° C. in the Hamamatsu FDSS recording system. All experiments were performed at 37° C. The framerate of the camera was set to a minimum of 35 Hz for recording and a binning of 4×4. To assess if the quality was sufficient for the experiments several parameters were reviewed (by-eye inspection), including regularity of the beating, shape and amplitude of the Ca^2+ signals and variability of these parameters between the different wells. Since the cells were spontaneously active, no electrical stimulation was applied. Cells were recorded for 5 min prior to compound application. 200 μM Moxifloxacin was applied after the baseline phase in a single-concentration-per-well fashion, followed by a wash-in phase of 5 min. Fluorescent activity was then recorded for additional 5 min. Moxifloxacin without compound preincubation was included as control (n=18), distributed over multiple plates. […] Coefficient of variation was calculated as where σ denotes the standard deviation and p represents the mean.

TNNT2 = experiment: Nanostring gene expression, hESC-derived cardiomyocytes in monolayer: TNNT2; type: cell-based, human
Procedure: (§3) Blank medium, addition of solvents as well as cardiomyocytes cultured for 9 days and day 42 were used as control. Beating of cells was assessed after 48 h, 72 h and 96 h. Cells were harvested following incubation for 10 minutes in RLTplus buffer (Qiagen). Changes in gene expression were determined using a custom nanostring gene panel (NanoString Technologies) according to manufacturer's instruction for the following target sequences including 7 housekeeping genes listed in Table 1.
(§4) To study the direct impact of antiarrhythmic drugs on the properties of hESC-derived cardiomyocytes, changes in expression level of selected genes were analyzed that are associated with action potential formation (HCN1, HCN4, KCNA5, KCNE4, KCNH7, KCNJ3, KCNJ5, SCN1B, SCN5A), electrical signal propagation (GJA1, GJA5, GJD3), calcium handling (CACNA1C, CACNA1D, CACNA1G, RYR2, PLN), cardiac maturation (HOPX, MYH7, MYL2, TNN13) and cardiac hypertrophy (NPPA, NPPB) as well as pan-cardiomyocyte markers (NKX2-5, TNNT2, ACTA2).

NPPA [2] = experiment: Nanostring gene expression, hESC-derived cardiomyocytes in monolayer: NPPA; type: cell-based, human
Procedure: as §3, §4

NKX2-5 = experiment: Nanostring gene expression, hESC-derived cardiomyocytes in monolayer: NKX2-5; type: cell-based, human
Procedure: as §3, §4

[3] = cited from earlier work
ACTA2 = experiment: Nanostring gene expression, hESC-derived cardiomyocytes in monolayer: ACTA2; type: cell-based, human; conditions: 5 days exposure to 0.1 μM and 1 μM amiodarone (FIG. 7)
Procedure: as §3, §4

GJA5 [4] = experiment: Nanostring gene expression, hESC-derived cardiomyocytes in monolayer: GJA5; type: cell-based, human; conditions: 0.1 μM and 1 μM, 5 days exposure
Procedure: as §3, §4

GJA5 [5] = experiment: Gene expression in 3D suspension aggregates 48 h after removal of the agent: GJA5; type: cell-based, human; conditions: 10 μM for about 120 h, measured 48 h after treatment, 3D aggregates
Procedure: (§1) In order to verify the lasting effect and the robustness across different culture systems, we tested the effect of the antiarrhythmic agents on the gene expression profile of the stem-cell derived cardiomyocytes using 3D suspension aggregates and measured the gene expression 48 h after removal of the anti-arrhythmic agents.
(§2) The aggregates were subsequently maintained in 6-well suspension plates on an orbital shaker (75 rpm) at a cell density of about 1.5×10^6 cells/ml in 3 mL medium.

NPPA [6] = experiment: Gene expression in 3D suspension aggregates 48 h after removal of the agent: NPPA; type: cell-based, human; conditions: 10 μM for about 120 h, measured 48 h after treatment, 3D aggregates
Procedure: as §1, §2

[7] = test system: hESC-derived cardiomyocytes; experiment: Beating of hESC-derived cardiomyocytes after exposure to antiarrhythmic drugs; type: cell-based, human
Procedure: Dissociated cardiomyocytes were seeded in RPMI1640 medium supplemented with 2% B27 and 0.1% Pen/Strep (Gibco) on laminin-521 or geltrex (Life Technologies)-coated plates at a cell density of 1×10^5/cm^2. […] Blank medium, addition of solvents as well as cardiomyocytes cultured for 9 days and day 42 were used as control. Beating of cells was assessed after 48 h, 72 h and 96 h.

[8] = 100 nM, proarrhythmic conditions (moxifloxacine)
[9] = 10 nM, proarrhythmic conditions (moxifloxacine)

SMILES | reduction of CV (beat-to-beat variability) compared to control ([1]; 100 nM, baseline conditions) | reduction of CV (beat-to-beat variability) compared to control [1, 8] | typical plasma concentrations in vivo [3] | reduction of CV (beat-to-beat variability) compared to control ([1]; 10 nM, baseline conditions) | reduction of CV (beat-to-beat variability) compared to control [1, 9] | other results
CCN(CC)CC(=O)Nc1c(C)cccc1C [Lidocaine, lidocaine] | 80.8% | 84.7% |  |  |  | expression of TNNT2 (TNNT2; 1 μM, 10 μM and 100 μM lidocaine, 5 days (FIG. 12)): without effecting the expression; NPPA expression (NPPA [2]; 1 μM, 10 μM and 100 μM lidocaine, 5 days, concentration dependent (FIG. 9)): decreased; expression of NKX2-5 (NKX2-5; 1 μM, 10 μM and 100 μM lidocaine, 5 days (FIG. 11)): without effecting the expression
Cc1cccc(C)c1OCC(C)N (stereo not drawn) [Mexiletine, mexiletine] | 76.79% | 77.5% | 0.6 to 1.7 µg/mL |  |  | 
CC(C)NCC(O)c1ccc(NS(C)(=O)=O)cc1 (stereo not drawn) [Sotalol, sotalol] | 79.4% | 84.9% | 1 to 3 µg/mL |  |  | 
CCCCc1oc2ccccc2c1C(=O)c1cc(I)c(OCCN(CC)CC)c(I)c1 [amiodarone] |  |  |  | 76.5% | 83.3% | changes of the expression of ACTA2 (ACTA2): did not result in changes; upregulation of GJA5 (GJA5 [4]): > 3 fold; changes of the expression of TNNT2 (TNNT2; 5 days exposure to 0.1 μM and 1 μM amiodarone (FIG. 6)): did not result in changes; increase in GJA5 (GJA5 [5]): about 2.7 fold; decrease in NPPA (NPPA [6]): about 2 fold; reduction in NPPA expression (NPPA [2]; amiodarone treatment, 5 days exposure to 0.1 μM and 1 μM (FIG. 3)): about 3 fold; beating frequency ([7]; 1 μM): clearly reduced; beating frequency ([7]; 10 μM): abrogated; changes of the expression of NKX2-5 (NKX2-5; 5 days exposure to 0.1 μM and 1 μM amiodarone (FIG. 5)): did not result in changes
COCCc1ccc(OCC(O)CNC(C)C)cc1 (stereo not drawn) [metoprolol] |  |  |  | 79.2% | 83.2% | 
CC(C)NCC(O)COc1cccc2ccccc12 (stereo not drawn) [propranolol] | 73.7% | 88.5% | 0.0021 to 0.3 µg/mL |  |  | 
